For assay [1], the system named is compound 48/80-induced gastric lesions. Put plainly: gastric lesion test: lesions induced by compound 48/80. The note with it: Rattus norvegicus, read-out: gastric lesion test ED50. Type of assay: in vivo.
In assay [2] the test system is compound 48/80-induced lethality. Put plainly: protection of rats from compound 48/80-induced lethality. The format is in vivo, male Wistar rats. The note with it: Rattus norvegicus, sc, 4 h, s.c., compound 48/80 0.5 mg/kg i.v. 1 hour after treatment, 50% protected against lethality, read-out: 48/80-test ED50. From the text: PROTECTION OF RATS FROM COMPOUND 48/80-INDUCED LETHALITY
Compound 48/80, a mixture of oligomers obtained by condensation of 4-methoxy-N-methyl-phenethylamine and formaldehyde has been described as a potent histamine releasing agent (Int. Arch. Allergy, 13, 336 (1958)). The protection from compound 48/80-induced lethal circulatory collapse appears to be a simple way of evaluating quantitatively the antihistaminic activity of test-compounds. Male rats of an inbred Wistar strain, weighing 240-260 g were used in the experiment. After overnight starvation the rats were transferred to conditioned laboratories (temp.=21±1° C., relative humidity=65±5%). The rats were treated subcutaneously or orally with a test compound or with the solvent (NaCl solution, 0.9%). One hour after treatment there was injected intravenously compound 48/80, freshly dissolved in water, at a dose of 0.5 mg/kg (0.2 ml/100 g of body weight). In control experiments, wherein 250 solvent-treated animals were injected with the standard dose of compound 48/80 not more than 2.8% of the animals survived after 4 hours, is therefore considered to be a safe criterion of a protective effect of drug administration.
In this connection the ED50 -values are the minimal doses of the concerned compounds, administered in the subcutaneous way, whereby 50% of the rats are protected against compound 48/80-induced lethality.

Assay [3] relates to apomorphine-induced phenomena: agitation and stereotypic chewing. Kind of assay: apomorphine (APO) test in rats, part of the combined APO-TRY-NOR test. Type of assay: in vivo, male Wistar rats. To be noted: Rattus norvegicus, sc, 0.5 h, read-out: ED50 (APO)-rat.
Assay [4] has as its system tryptamine-induced bilateral tonic seizures. Put plainly: tryptamine (TRY) test in rats, part of the combined APO-TRY-NOR test. Type of assay: in vivo, male Wistar rats. To be noted: Rattus norvegicus, sc, 1.5 h, tryptamine 40 mg/kg i.v. at 90 min.
The test system of assay [5] is norepinephrine-induced mortality. Put plainly: norepinephrine (NOR) test in rats, part of the combined APO-TRY-NOR test. The format is in vivo, male Wistar rats. To be noted: Rattus norvegicus, sc, 2 h, norepinephrine 1.25 mg/kg i.v. at 120 min. Here is the method: THE COMBINED APOMORPHINE (APO)-, TRYPTAMINE (TRY)- AND NOREPINEPHRINE (NOR) TEST IN RATS
The experimental animals used in this test were adult male Wistar rats (weight 240±10 g). After an overnight fast, the animals were treated subcutaneously (1 ml/100 g) with an aqueous solution of the compound under investigation (time=zero) and put in isolated observation cages. […] At the end of this 1 hour period (time=90 minutes) the same animals were injected intravenously with 40 mg/kg of tryptamine (TRY) and the presence of the typical tryptamine-induced bilateral tonic seizures was noted. Two hours after pretreatment (time=120 minutes) finally, the same animals were challenged with 1.25 mg/kg intravenously of norepinephrine (NOR) and possible mortality was looked for up to 60 minutes later.
The table 1 gives the ED50 -values of a number of the compounds under consideration. As used herein, the ED50 -value represents the dose which protects 50% of the animals from apomorphine-, tryptamine- or norepinephrine-induced phenomena.

The test system of assay [6] is apomorphine-induced emesis. Put plainly: apomorphine test in dogs (APO-dog). Type of assay: in vivo. The note with it: Canis lupus familiaris, sc; beagle dogs; apomorphine 0.31 mg/kg s.c. 1 hour after compound; protection from emesis.
Assay [7] has as its system serotonin-induced contraction of rat caudal artery. Kind of assay: antagonistic activity on the effect of serotonin on the caudal artery of the rat. To be noted: serotonin 40 ng/ml; minimal concentration reducing contraction amplitude to at least 50% of normal; 5 min. The method, then:
ANTAGONISTIC ACTIVITY ON THE EFFECT OF SEROTONIN ON THE CAUDAL ARTERY OF THE RAT
Caudal arteries from fasted male rats (210-235 g) were used in the test. Two helical strips having a length of 5-6 cm and a width of 2 mm. were obtained from each artery and mounted vertically in a 100 ml organ bath containing an oxygenated Krebs-Henseleit solution. Submaximal contractions of the arterial strips were produced by adding single doses of serotonin (40 ng/ml) to the organ bath for 2 minutes with each time an interval of 10 minutes. The amplitude of the contraction was measured before and 5 minutes after adding the drug. After washing out, the agonist was added again three times in order to see whether the contraction was restored and normalized.

Where [8] appears, read: rats, compound 48/80, distension of the stomach completely absent in 50% of rats.
The mark [9] stands for this setting: s.c., rats, apomorphine 1.25 mg/kg i.v. 30 min after compound.

From US4548938A, “5-H-1,3,4-thiadiazolo[3,2-a]pyrimidin-5-one compounds” (Janssen Pharmaceutica N.V., priority 1985, dated 1985) come the findings set out here.

The structures appear in SMILES notation. Like-named read-outs stand apart in the source and are kept apart here.

With `Cc1nc2n(c(=O)c1CCN1CC[C@H](c3c[nH]c4ccccc34)[C@H](C)C1)CCS2` (relative stereo) [compound 23, cis-2,3-dihydro-6-[2-[4-(1H-indol-3-yl)-3-methyl-1-piperidinyl]ethyl]-7-methyl-5H-thiazolo[3,2-a]pyrimidin-5-one], the ED50 in assay [1] (setting [8]) and in assay [2] was 2.5 mg/kg throughout.

As to `Cc1nc2n(c(=O)c1CCN1CCC(C(=O)c3ccc(F)cc3)CC1)CCS2` [compound 1, 6-[2-[4-(4-fluorobenzoyl)-1-piperidinyl]ethyl]-2,3-dihydro-7-methyl-5H-thiazolo[3,2-a]pyrimidin-5-one], the ED50 in assay [3] (setting [9]) was determined as 0.31 mg/kg; in assay [4] it was 0.16 mg/kg; in assay [5], 0.63 mg/kg; in assay [6], 0.03 mg/kg; in assay [1] (setting [8]) it was 0.0005 mg/kg; in assay [2], 0.63 mg/kg. Moreover, in assay [7], the “caudal artery rat ED50” value is 0.32 ng/mL.

Take `Cc1nc2n(c(=O)c1CCN1CCC(C(=O)c3ccc(F)cc3)CC1)CCCS2` [compound 2, 7-[2-[4-(4-fluorobenzoyl)-1-piperidinyl]ethyl]3,4-dihydro-8-methyl-2H,6H-pyrimido[2,1-b][1,3]thiazin-6-one]: the ED50 in assay [3] was determined as 0.31 mg/kg; in assay [4], 0.63 mg/kg; in assay [5] it was 1.25 mg/kg; in assay [6], 0.03 mg/kg; in assay [1] (setting [8]), 0.01 mg/kg; in assay [2], 0.16 mg/kg. Also, in assay [7], the “caudal artery rat ED50” value turned out to be 0.32 ng/mL.

With `Cc1nc2n(c(=O)c1CCN1CCC(c3c[nH]c4ccccc34)CC1)CCCS2` [compound 3, 3,4-dihydro-7-[2-[4-(1H-indol-3-yl)-1-piperidinyl]ethyl]-8-methyl-2H,6H-pyrimido[2,1-b][1,3]thiazin-6-one], the ED50 in assay [3] is 0.63 mg/kg; in assay [4], 0.63 mg/kg; in assay [5], 1.25 mg/kg; in assay [6] it was 0.015 mg/kg; in assay [1] (setting [8]) it was 0.02 mg/kg; in assay [2] it was 0.04 mg/kg. In addition, in assay [7], the “caudal artery rat ED50” value was 0.32 ng/mL.

With `Cc1nc2scc(C)n2c(=O)c1CCN1CCC(C(=O)c2ccc(F)cc2)CC1` [compound 4, 6-[2-[4-(4-fluorobenzoyl)-1-piperidinyl]ethyl]-3,7-dimethyl-5H-thiazolo[3,2-a]pyrimidin-5-one], the ED50 turned out to be 0.16 mg/kg in assay [3]; 0.005 mg/kg in assay [4]; 1.25 mg/kg in assay [5]; 0.01 mg/kg in assay [1] (setting [8]); 0.31 mg/kg in assay [2]. Besides, in assay [7], the “caudal artery rat ED50” value amounted to 0.32 ng/mL.

`Cc1nc2sccn2c(=O)c1CCN1CCC(C(=O)c2ccc(F)cc2)CC1` [compound 5, 6-[2-[4-(4-fluorobenzoyl)-1-piperidinyl]ethyl]-7-methyl-5H-thiazolo[3,2-a]pyrimidin-5-one]: the ED50 in assay [3] (setting [9]) came out at 0.02 mg/kg; in assay [4], 0.01 mg/kg; in assay [5] it was 0.63 mg/kg; in assay [6] it was 0.015 mg/kg; in assay [1] (setting [8]), 0.005 mg/kg; in assay [2], 0.31 mg/kg. In assay [7], the “caudal artery rat ED50” value was found to be 0.14 ng/mL.

Regarding `Cc1nc2sc3ccccc3n2c(=O)c1CCN1CCC(C(=O)c2ccc(F)cc2)CC1` [compound 6, 3-[2-[4-(4-fluorobenzoyl)-1-piperidinyl]ethyl]-2-methyl-4H-pyrimido[2,1-b]benzothiazol-4-one], the ED50 stood at 5 mg/kg in assay [3] (setting [9]); 0.02 mg/kg in assay [4]; 0.31 mg/kg in assay [5]; 1.8 mg/kg in assay [6]; 0.08 mg/kg in assay [1]; 0.16 mg/kg in assay [2]. Besides, in assay [7], the “caudal artery rat ED50” value came out at 0.14 ng/mL.

Consider `Cc1nn2c(=O)c(CCN3CCC(C(=O)c4ccc(F)cc4)CC3)c(C)nc2s1` [compound 7], for which the ED50 in assay [3] was found to be 2.5 mg/kg; in assay [4], 0.31 mg/kg; in assay [5], 0.63 mg/kg; in assay [6] it was 0.5 mg/kg; in assay [1] (setting [8]) it was 0.0025 mg/kg; in assay [2], 0.16 mg/kg. Also, the “caudal artery rat ED50” value in assay [7] was determined as 1.25 ng/mL.

As for `Cc1nc2sccn2c(=O)c1CCN1CCC(C(=O)c2ccc(F)cc2)(c2ccccc2)CC1` [compound 10, 6-[2-[4-(4-fuorobenzoyl)-4-phenyl-1-piperidinyl]ethyl]-7-methyl-5H-thiazolo-[3,2-a]pyrimidin-5-one], the ED50 in assay [1] (setting [8]) was 2.5 mg/kg.

As to `Cc1nc2sc3ccccc3n2c(=O)c1CCN1CCC(c2c[nH]c3ccccc23)CC1` [compound 13, 3-[2-[4-(1H-indol-3-yl)-1-piperidinyl]ethyl]-2-methyl-4H-pyrimido[2,1-b]benzothiazol-4-one], the ED50 in assay [3] came out at 1.25 mg/kg; in assay [4] it was 0.31 mg/kg; in assay [5], 0.16 mg/kg; in assay [1] (setting [8]), 0.04 mg/kg; in assay [2], 0.63 mg/kg. Further, the “caudal artery rat ED50” value in assay [7] worked out at 0.32 ng/mL.

Consider `Cc1nn2c(=O)c(CCN3CCC(c4c[nH]c5ccccc45)CC3)c(C)nc2s1` [compound 14, 6-[2-[4-(1H-indol-3-yl)-1-piperidinyl]ethyl]-2,7-dimethyl-5H-1,3,4-thiadiazolo[3,2-a]pyrimidin-5-one], for which the ED50 stood at 5 mg/kg in assay [3] (setting [9]); 1.25 mg/kg in assay [4]; 0.63 mg/kg in assay [5]; 0.04 mg/kg in assay [1] (setting [8]); 0.04 mg/kg in assay [2]. The “caudal artery rat ED50” value in assay [7] worked out at 0.56 ng/mL.

For the compound `Cc1nc2n(c(=O)c1CCN1CCC(c3c[nH]c4ccccc34)CC1)CCS2` [compound 15, 2,3-dihydro-6-[2-[4-(1H-indol-3-yl)-1-piperidinyl]-ethyl]-7-methyl-5H-thiazolo[3,2-a]pyrimidin-5-one], the ED50 in assay [3] worked out at 1.25 mg/kg; in assay [5], 1.25 mg/kg; in assay [6], 0.008 mg/kg; in assay [1] (setting [8]), 0.04 mg/kg; in assay [2], 0.02 mg/kg. For the same compound, the “caudal artery rat ED50” value in assay [7] is 0.31 ng/mL.

In the case of `Cc1nc2scc(C)n2c(=O)c1CCN1CCC(c2c[nH]c3ccc(F)cc23)CC1` [compound 20, 6-[2-[4-(5-fluoro-1H-indol-3-yl)-1-piperidinyl]ethyl]-3,7-dimethyl-5H-thiazolo[3,2-a]pyrimidin-5-one], the ED50 in assay [3] was 1.25 mg/kg; in assay [4], 0.63 mg/kg; in assay [6], 0.12 mg/kg; in assay [1] (setting [8]), 0.31 mg/kg; in assay [2], 0.63 mg/kg. Besides, the “caudal artery rat ED50” value in assay [7] was 0.31 ng/mL.

For the compound `Cc1nc2sccn2c(=O)c1CCN1CCC(c2c[nH]c3ccc(Cl)cc23)CC1` [compound 21, 6-[2-[4-(5-chloro-1H-indol-3-yl)-1-piperidinyl]ethyl]-7-methyl-5H-thiazolo[3,2-a]pyrimidin-5-one], the ED50 in assay [3] came to 0.63 mg/kg; in assay [5] it was 1.25 mg/kg; in assay [1] it was 1.25 mg/kg; in assay [2], 2.5 mg/kg.

In the case of `Cc1nc2sc(C)c(C)n2c(=O)c1CCN1CCC(C(=O)c2ccc(F)cc2)CC1` [compound 24, 6-[2-[4-(4-fluorobenzoyl)-1-piperidinyl]ethyl]-2,3,7-trimethyl-5H-thiazolo[3,2-a]pyrimidin-5-one], the ED50 was 0.63 mg/kg in assay [3] (setting [9]); 0.04 mg/kg in assay [4]; 0.63 mg/kg in assay [5]; 0.12 mg/kg in assay [6]; 0.01 mg/kg in assay [1] (setting [8]); 0.08 mg/kg in assay [2].
